ChEMBL document CHEMBL1201862, “PubChem BioAssay data set” (2004)
One block for each molecule: values may come before it. Activity calls are given as the source filed them.

Tests used:
[1] = biological target: T1, High affinity choline transporter 1 (Homo sapiens, UniProt Q9GZV3); assay: CHT activators, dose response, cell-based, 10-point CRC, membrane potential dye (AID 602376); type: functional
T1 sequence (Q9GZV3 whole entry): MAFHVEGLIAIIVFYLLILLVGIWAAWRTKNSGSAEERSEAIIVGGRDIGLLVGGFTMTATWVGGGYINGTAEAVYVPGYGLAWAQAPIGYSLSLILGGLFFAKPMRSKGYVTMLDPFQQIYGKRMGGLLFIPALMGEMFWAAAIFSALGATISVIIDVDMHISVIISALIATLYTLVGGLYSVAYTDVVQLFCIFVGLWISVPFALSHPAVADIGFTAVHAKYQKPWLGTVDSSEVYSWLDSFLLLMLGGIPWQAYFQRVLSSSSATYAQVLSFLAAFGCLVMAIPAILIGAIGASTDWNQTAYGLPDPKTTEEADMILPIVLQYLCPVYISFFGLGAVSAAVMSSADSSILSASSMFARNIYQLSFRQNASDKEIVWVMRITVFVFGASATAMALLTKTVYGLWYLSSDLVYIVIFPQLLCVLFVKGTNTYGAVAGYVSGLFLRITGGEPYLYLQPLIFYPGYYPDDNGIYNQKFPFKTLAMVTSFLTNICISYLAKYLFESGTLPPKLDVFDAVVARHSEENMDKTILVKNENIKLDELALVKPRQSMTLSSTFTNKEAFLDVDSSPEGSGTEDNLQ

cells [2] = type: functional, cell-based
[3] = biological target: T2, Trace amine-associated receptor 1 (Homo sapiens, UniProt Q96RJ0); assay: Fluorescence-based cell-based high throughput dose response assay to identify agonists of the human trace amine associated receptor 1 (TAAR1).; type: functional
T2 sequence (Q96RJ0 whole entry): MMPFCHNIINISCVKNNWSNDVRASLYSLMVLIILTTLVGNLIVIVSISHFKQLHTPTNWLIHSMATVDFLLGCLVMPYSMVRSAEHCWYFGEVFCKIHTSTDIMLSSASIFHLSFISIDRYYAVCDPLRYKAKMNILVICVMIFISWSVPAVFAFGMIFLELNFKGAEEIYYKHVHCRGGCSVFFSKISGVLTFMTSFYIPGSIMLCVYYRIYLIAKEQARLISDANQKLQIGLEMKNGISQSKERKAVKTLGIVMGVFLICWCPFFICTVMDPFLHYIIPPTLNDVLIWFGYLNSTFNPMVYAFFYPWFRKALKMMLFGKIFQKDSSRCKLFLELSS

[4] = biological target: T2, Trace amine-associated receptor 1; assay: Counterscreen for agonists of the human trace amine associated receptor 1 (hTAAR1): Fluorescence-based cell-based high throughput dose response assay to identify hTAAR1 agonist that also desensitize TAAR1 receptor response.; type: functional
cells [5] = type: functional, cell-based; remark: listed apart in the source
[6] = biological target: Sphingosine 1-phosphate receptor 2 (Homo sapiens, UniProt O95136); assay: Late-stage fluorescence-based dose-response cell-based counterscreen assay to identify agonists of the Sphingosine 1-Phosphate Receptor 3 (S1P3): Sphingosine 1-Phosphate Receptor 2 (S1P2) agonist assay.; type: functional
[7] = biological target: Sphingosine 1-phosphate receptor 4 (Homo sapiens, UniProt O95977); assay: Late-stage fluorescence-based dose-response cell-based counterscreen assay to identify agonists of the Sphingosine 1-Phosphate Receptor 3 (S1P3): Sphingosine 1-Phosphate Receptor 4 (S1P4) agonist assay.; type: functional
[8] = biological target: Protein kinase C theta type (Homo sapiens, UniProt Q04759); assay: Navigating the Kinome. Panel member name: PRKCQ; type: functional
Protein kinase C theta type, sequence (Q04759 whole entry): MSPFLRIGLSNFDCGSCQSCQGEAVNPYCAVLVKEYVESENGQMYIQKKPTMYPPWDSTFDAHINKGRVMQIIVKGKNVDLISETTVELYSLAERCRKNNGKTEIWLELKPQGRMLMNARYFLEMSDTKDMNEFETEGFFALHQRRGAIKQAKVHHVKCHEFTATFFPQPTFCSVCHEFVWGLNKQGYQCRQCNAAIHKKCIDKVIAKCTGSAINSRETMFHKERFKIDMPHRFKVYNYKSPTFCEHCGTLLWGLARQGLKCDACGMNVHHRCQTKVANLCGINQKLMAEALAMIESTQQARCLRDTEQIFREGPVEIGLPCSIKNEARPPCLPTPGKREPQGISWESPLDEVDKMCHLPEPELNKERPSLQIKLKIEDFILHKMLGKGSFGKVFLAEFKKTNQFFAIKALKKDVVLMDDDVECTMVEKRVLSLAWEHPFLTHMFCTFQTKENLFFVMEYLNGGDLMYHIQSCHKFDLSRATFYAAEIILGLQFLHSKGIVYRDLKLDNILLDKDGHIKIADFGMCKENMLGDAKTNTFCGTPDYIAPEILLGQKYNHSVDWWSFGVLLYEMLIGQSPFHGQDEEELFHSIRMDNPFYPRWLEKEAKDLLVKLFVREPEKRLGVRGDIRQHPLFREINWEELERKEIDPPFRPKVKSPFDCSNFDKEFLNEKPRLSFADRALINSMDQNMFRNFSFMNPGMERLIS

[9] = biological target: Ribosomal protein S6 kinase alpha-3 (Homo sapiens, UniProt P51812); type: functional;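 also: measured within a kinome-wide profiling panel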
[10] = biological target: Dual specificity protein kinase CLK2 (Homo sapiens, UniProt P49760); type: functional
Dual specificity protein kinase CLK2, sequence (P49760 whole entry): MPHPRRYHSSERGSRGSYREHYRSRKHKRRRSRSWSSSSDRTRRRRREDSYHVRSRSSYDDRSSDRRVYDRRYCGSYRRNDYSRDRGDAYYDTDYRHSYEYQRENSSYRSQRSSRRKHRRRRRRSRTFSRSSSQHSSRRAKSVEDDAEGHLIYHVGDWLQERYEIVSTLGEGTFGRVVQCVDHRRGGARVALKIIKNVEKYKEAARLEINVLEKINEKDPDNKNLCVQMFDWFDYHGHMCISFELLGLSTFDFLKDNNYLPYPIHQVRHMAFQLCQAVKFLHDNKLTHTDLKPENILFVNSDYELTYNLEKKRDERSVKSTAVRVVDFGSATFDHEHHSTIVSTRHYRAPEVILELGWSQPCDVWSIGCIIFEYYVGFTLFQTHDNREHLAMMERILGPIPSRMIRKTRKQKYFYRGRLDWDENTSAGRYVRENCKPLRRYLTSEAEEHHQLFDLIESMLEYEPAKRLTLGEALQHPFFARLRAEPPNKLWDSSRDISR

[11] = biological target: Dual specificity mitogen-activated protein kinase kinase 1 (Homo sapiens, UniProt Q02750); assay: Navigating the Kinome. Panel member name: MAP2K1; type: functional
[12] = biological target: Tyrosine-protein kinase JAK2 (Homo sapiens, UniProt O60674); type: functional;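 also: JAK2 tested as one member of a kinase panel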
[13] = biological target: Serine/threonine-protein kinase TBK1 (Homo sapiens, UniProt Q9UHD2); assay: Navigating the Kinome. Panel member name: TBK1; type: functional
[14] = biological target: 5'-AMP-activated protein kinase catalytic subunit alpha-1 (Homo sapiens, UniProt Q13131); type: functional
5'-AMP-activated protein kinase catalytic subunit alpha-1, sequence (Q13131 whole entry): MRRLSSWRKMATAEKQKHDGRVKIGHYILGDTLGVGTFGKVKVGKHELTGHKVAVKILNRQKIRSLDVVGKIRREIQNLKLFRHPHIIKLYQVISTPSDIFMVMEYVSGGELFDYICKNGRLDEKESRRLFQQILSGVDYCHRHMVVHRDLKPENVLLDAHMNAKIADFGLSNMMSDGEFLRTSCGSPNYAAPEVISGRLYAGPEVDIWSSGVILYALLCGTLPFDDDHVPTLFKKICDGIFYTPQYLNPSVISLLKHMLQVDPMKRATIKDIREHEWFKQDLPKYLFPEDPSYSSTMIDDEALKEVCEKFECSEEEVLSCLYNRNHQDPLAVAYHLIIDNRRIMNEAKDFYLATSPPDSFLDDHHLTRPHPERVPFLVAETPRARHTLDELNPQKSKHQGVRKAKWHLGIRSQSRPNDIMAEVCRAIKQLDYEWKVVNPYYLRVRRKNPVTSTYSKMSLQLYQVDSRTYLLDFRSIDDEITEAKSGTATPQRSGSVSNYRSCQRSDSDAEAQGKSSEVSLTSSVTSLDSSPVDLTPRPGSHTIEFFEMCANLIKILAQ

[15] = biological target: ALK tyrosine kinase receptor (Homo sapiens, UniProt Q9UM73); type: functional;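 also: ALK tested as one member of a kinase panel screen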
[16] = biological target: Tyrosine-protein kinase receptor TYRO3 (Homo sapiens, UniProt Q06418); type: functional;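 also: TYRO3 value obtained as one member of a kinome-wide profiling panel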
[17] = biological target: Serine/threonine-protein kinase D3 (Homo sapiens, UniProt O94806); type: functional;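 also: determined within a kinase panel screen, with PRKCN as the panel member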
[18] = biological target: Death-associated protein kinase 3 (Homo sapiens, UniProt O43293); type: functional;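 also: measured as one member of a kinome-wide profiling panel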
Activin receptor type-1 = Activin receptor type-1 (Homo sapiens, UniProt Q04771); assay: Navigating the Kinome. Panel member name: ACVR1; type: functional
[19] = biological target: Mitogen-activated protein kinase 8 (Homo sapiens, UniProt P45983); type: functional;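 also: value comes from one member of a kinome-wide kinase profiling panel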
Aurora kinase A = Aurora kinase A (Homo sapiens, UniProt O14965); type: functional;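 also: value from the Navigating the Kinome kinase panel profiling, panel entry STK6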
[20] = biological target: Tyrosine-protein kinase BTK (Homo sapiens, UniProt Q06187); type: functional
[21] = biological target: Serine/threonine-protein kinase PAK 4 (Homo sapiens, UniProt O96013); type: functional;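 also: value obtained within a kinome profiling panel in which PAK4 was one of the panel members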
Serine/threonine-protein kinase PAK 4, sequence (O96013 whole entry): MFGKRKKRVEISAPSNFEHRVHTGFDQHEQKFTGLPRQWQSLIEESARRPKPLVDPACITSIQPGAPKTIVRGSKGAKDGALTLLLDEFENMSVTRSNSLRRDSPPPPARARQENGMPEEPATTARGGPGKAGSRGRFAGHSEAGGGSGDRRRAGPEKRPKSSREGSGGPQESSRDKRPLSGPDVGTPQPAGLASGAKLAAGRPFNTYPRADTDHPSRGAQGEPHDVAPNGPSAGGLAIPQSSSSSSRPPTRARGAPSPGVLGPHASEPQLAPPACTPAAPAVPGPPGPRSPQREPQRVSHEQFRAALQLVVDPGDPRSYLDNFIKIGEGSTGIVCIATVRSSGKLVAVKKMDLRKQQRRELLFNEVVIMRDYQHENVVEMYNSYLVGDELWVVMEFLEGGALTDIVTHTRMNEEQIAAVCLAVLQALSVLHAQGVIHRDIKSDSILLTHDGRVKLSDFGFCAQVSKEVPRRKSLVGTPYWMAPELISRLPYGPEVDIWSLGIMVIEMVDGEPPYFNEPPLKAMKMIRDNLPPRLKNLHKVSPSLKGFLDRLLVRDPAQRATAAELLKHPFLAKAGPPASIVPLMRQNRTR

[22] = biological target: Fibroblast growth factor receptor 1 (Homo sapiens, UniProt P11362); type: functional
[23] = biological target: Casein kinase I isoform alpha (Homo sapiens, UniProt P48729); type: functional
[24] = biological target: Tyrosine-protein kinase JAK3 (Homo sapiens, UniProt P52333); type: functional
[25] = biological target: Mitogen-activated protein kinase 9 (Homo sapiens, UniProt P45984); type: functional;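 also: value from a kinome panel profiling assay, MAPK9 panel entry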
Mitogen-activated protein kinase 9, sequence (P45984 whole entry): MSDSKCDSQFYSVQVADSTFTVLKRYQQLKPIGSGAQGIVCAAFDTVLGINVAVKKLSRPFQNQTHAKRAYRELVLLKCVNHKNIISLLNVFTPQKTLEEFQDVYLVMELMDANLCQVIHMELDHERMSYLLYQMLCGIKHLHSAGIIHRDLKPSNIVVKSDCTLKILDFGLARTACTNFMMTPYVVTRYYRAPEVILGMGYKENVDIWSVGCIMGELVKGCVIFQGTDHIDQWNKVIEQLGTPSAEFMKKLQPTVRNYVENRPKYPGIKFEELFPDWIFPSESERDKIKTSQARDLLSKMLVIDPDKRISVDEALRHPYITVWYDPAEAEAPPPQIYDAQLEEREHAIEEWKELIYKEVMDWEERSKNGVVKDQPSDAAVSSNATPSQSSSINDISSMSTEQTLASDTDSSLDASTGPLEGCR

[26] = biological target: Glycogen synthase kinase-3 alpha (Homo sapiens, UniProt P49840); type: functional;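 also: GSK3A result taken from a broad kinome-wide kinase panel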
[27] = biological target: Mitogen-activated protein kinase kinase kinase kinase 2 (Homo sapiens, UniProt Q12851); type: functional;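 also: measured as one member of a kinome-wide kinase panel, with MAP4K2 as the panel entry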
Activated CDC42 kinase 1 = Activated CDC42 kinase 1 (Homo sapiens, UniProt Q07912); assay: Navigating the Kinome. Panel member name: ACK1; type: functional
[28] = biological target: Platelet-derived growth factor receptor beta (Homo sapiens, UniProt P09619); type: functional;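 also: value comes from a kinome panel, with PDGFRB tested as one panel member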
[29] = biological target: Tyrosine-protein kinase ABL1 (Homo sapiens, UniProt P00519); type: functional
[30] = biological target: Vascular endothelial growth factor receptor 2 (Homo sapiens, UniProt P35968); type: functional
[31] = biological target: Cyclin-dependent kinase 5 (Homo sapiens, UniProt Q00535); type: functional;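 also: CDK5 measured as one member of a kinase profiling panel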
[32] = biological target: Dual specificity tyrosine-phosphorylation-regulated kinase 1B (Homo sapiens, UniProt Q9Y463); assay: Navigating the Kinome. Panel member name: DYRK1B; type: functional
Focal adhesion kinase 1 = Focal adhesion kinase 1 (Homo sapiens, UniProt Q05397); type: functional;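 also: measured as one member of a kinome panel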
[33] = biological target: Leucine-rich repeat serine/threonine-protein kinase 2 (Homo sapiens, UniProt Q5S007); type: functional;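 also: value from a broad kinome-wide panel profiling study in which LRRK2 was one of the kinases tested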
Aurora kinase B = Aurora kinase B (Homo sapiens, UniProt Q96GD4); type: functional
[34] = biological target: Rho-associated protein kinase 1 (Homo sapiens, UniProt Q13464); type: functional;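 also: measured within a broad kinome-wide panel profiling many kinases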
[35] = biological target: Cyclin-dependent kinase 8 (Homo sapiens, UniProt P49336); assay: Navigating the Kinome. Panel member name: CDK8; type: functional
[36] = biological target: Cyclin-dependent kinase 7 (Homo sapiens, UniProt P50613); type: functional;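 also: value comes from a kinome-wide kinase profiling panel in which CDK7 is one member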
[37] = biological target: Vascular endothelial growth factor receptor 1 (Homo sapiens, UniProt P17948); type: functional;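 also: measured within a kinome-wide profiling panel, FLT1 as the panel member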
[38] = biological target: Glycogen synthase kinase-3 beta (Homo sapiens, UniProt P49841); type: functional;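 also: value comes from a broad kinome profiling panel, with GSK3B as the panel member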
Glycogen synthase kinase-3 beta, sequence (P49841 whole entry): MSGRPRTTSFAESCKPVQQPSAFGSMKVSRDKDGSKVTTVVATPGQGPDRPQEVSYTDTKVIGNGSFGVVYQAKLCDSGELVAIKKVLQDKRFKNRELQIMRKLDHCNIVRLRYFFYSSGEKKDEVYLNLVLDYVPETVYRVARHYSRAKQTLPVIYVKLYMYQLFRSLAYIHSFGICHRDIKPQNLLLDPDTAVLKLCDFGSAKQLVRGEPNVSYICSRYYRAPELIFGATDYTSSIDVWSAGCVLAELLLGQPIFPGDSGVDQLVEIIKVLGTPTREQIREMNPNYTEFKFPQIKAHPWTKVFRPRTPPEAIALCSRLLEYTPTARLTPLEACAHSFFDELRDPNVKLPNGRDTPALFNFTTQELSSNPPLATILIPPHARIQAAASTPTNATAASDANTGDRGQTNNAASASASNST

[39] = biological target: Cyclin-dependent kinase 9 (Homo sapiens, UniProt P50750); type: functional;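 also: value from the CDK9 entry of a kinome-spanning kinase panel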
[40] = biological target: cAMP-dependent protein kinase catalytic subunit alpha (Homo sapiens, UniProt P17612); type: functional
[41] = biological target: Dual specificity protein kinase CLK4 (Homo sapiens, UniProt Q9HAZ1); type: functional
[42] = biological target: Mitogen-activated protein kinase kinase kinase kinase 4 (Homo sapiens, UniProt O95819); type: functional
[43] = biological target: Macrophage-stimulating protein receptor (Homo sapiens, UniProt Q04912); assay: Navigating the Kinome. Panel member name: MST1R; type: functional
[44] = biological target: Macrophage colony-stimulating factor 1 receptor (Homo sapiens, UniProt P07333); type: functional;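 also: value comes from the Navigating the Kinome screening panel, CSF1R member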
Macrophage colony-stimulating factor 1 receptor, sequence (P07333 whole entry): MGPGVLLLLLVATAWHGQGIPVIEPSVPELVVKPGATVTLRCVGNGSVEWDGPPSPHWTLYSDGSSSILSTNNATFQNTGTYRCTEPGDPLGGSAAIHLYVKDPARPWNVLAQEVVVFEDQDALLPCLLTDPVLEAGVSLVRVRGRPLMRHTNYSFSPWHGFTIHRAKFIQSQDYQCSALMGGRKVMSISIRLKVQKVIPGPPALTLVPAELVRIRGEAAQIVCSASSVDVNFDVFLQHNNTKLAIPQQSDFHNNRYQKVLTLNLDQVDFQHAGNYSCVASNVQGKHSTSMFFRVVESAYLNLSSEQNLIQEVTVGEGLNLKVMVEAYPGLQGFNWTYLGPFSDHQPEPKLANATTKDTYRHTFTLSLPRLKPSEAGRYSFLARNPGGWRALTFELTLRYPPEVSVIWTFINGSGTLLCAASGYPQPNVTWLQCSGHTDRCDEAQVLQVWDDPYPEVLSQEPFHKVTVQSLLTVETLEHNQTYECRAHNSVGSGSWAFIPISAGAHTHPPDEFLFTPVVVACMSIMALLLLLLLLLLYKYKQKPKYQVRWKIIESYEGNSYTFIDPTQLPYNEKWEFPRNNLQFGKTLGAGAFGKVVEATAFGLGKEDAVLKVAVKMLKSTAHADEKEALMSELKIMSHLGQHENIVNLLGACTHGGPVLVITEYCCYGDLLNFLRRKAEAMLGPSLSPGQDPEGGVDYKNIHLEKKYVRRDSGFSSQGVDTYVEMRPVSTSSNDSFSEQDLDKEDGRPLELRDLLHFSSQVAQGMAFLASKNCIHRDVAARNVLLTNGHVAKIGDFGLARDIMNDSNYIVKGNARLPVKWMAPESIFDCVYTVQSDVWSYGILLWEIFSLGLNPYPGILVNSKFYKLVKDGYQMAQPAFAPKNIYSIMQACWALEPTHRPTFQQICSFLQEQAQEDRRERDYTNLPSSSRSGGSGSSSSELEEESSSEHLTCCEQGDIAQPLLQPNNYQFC

[45] = biological target: Dual specificity mitogen-activated protein kinase kinase 2 (Homo sapiens, UniProt P36507); assay: Navigating the Kinome. Panel member name: MAP2K2; type: functional
[46] = biological target: Dual specificity tyrosine-phosphorylation-regulated kinase 1A (Homo sapiens, UniProt Q13627); type: functional;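 also: measured against DYRK1A as one member of a broad kinome profiling panel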
[47] = biological target: Inhibitor of nuclear factor kappa-B kinase subunit epsilon (Homo sapiens, UniProt Q14164); assay: Navigating the Kinome. Panel member name: IKBKE; type: functional
Inhibitor of nuclear factor kappa-B kinase subunit epsilon, sequence (Q14164 whole entry): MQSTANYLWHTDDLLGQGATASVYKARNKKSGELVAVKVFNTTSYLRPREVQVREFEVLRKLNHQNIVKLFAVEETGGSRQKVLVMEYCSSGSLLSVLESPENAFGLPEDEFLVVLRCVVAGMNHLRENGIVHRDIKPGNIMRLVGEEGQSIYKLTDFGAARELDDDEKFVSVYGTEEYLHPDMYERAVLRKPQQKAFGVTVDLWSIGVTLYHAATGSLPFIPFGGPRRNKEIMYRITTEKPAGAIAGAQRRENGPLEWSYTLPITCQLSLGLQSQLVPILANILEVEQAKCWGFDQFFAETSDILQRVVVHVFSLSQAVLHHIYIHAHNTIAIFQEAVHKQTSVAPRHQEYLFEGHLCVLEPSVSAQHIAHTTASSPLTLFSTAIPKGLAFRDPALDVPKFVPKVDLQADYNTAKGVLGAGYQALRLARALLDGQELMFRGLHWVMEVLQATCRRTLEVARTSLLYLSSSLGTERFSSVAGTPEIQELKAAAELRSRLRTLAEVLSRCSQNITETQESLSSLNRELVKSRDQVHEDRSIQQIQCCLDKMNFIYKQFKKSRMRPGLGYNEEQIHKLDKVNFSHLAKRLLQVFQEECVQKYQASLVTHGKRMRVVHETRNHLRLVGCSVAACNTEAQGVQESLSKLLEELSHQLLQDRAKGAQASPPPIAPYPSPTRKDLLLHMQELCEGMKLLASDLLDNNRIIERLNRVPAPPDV

[48] = biological target: Leukocyte tyrosine kinase receptor (Homo sapiens, UniProt P29376); assay: Navigating the Kinome. Panel member name: LTK; type: functional

Compound: CC(C)CC(C(=O)N1CCc2ccccc2C1)N1C(=O)c2ccccc2C1=O (stereo not drawn)
EC50 [1]: 22.4 µM (active) | IC50 (cells [2]): > 29.9 µM (inactive) | EC50 [3]: 2.96 µM (active) | IC50 [4]: 5.55 µM (active) | EC50 (cells [5]): > 29.9 µM (inactive)

EC50 [6]: > 50 µM (inactive) | EC50 [7]: > 50 µM (inactive)
Compound: CCCc1cc(C(=O)N(C2CCCCC2)C2CCCC2)no1

Ki [8]: 50.1 µM (active) | Ki [9]: 39.8 µM (active) | Ki [10]: 25.1 µM (active) | Ki [11]: 10 µM (active) | Ki [12]: 31.6 µM (active) | Ki [13]: 63.1 µM (active) | Ki [14]: 15.8 µM (active) | Ki [15]: 63.1 µM (active) | Ki [16]: 63.1 µM (active) | Ki [17]: 63.1 µM (active) | Ki (Activin receptor type-1): 39.8 µM (active) | Ki [19]: 15.8 µM (active) | Ki (Aurora kinase A): 39.8 µM (active) | Ki [20]: 63.1 µM (active) | Ki [21]: 20 µM (active) | Ki [22]: 25.1 µM (active) | Ki [23]: 10 µM (active) | Ki [24]: 63.1 µM (active) | Ki [25]: 50.1 µM (active) | Ki [26]: 50.1 µM (active) | Ki [27]: 79.4 µM (active) | Ki (Activated CDC42 kinase 1): 25.1 µM (active) | Ki [28]: 12.6 µM (active) | Ki [29]: 50.1 µM (active) | Ki [30]: 25.1 µM (active) | Ki [31]: 5.01 µM (active) | Ki [32]: 12.6 µM (active) | Ki (Focal adhesion kinase 1): 79.4 µM (active) | Ki [33]: 2 µM (active) | Ki (Aurora kinase B): 15.8 µM (active) | Ki [34]: 5.01 µM (active) | Ki [35]: 12.6 µM (active) | Ki [36]: 31.6 µM (active) | Ki [37]: 79.4 µM (active) | Ki [38]: 50.1 µM (active) | Ki [39]: > 63.1 µM (inactive) | Ki [40]: 10 µM (active) | Ki [41]: 1.58 µM (active) | Ki [42]: 79.4 µM (active) | Ki [43]: 31.6 µM (active) | Ki [44]: 31.6 µM (active) | Ki [45]: 39.8 µM (active) | Ki [46]: 39.8 µM (active) | Ki [47]: 100 µM (active) | Ki [48]: 15.8 µM (active)
Compound: Fc1cccc(CNc2ncnc3nc[nH]c23)c1
Ki [18]: 31.6 µM (active)
